Where “and” joins values, the source holds several entries; their conditions need not be identical. Equal entries are not always repeated. Where two headings read alike, the source gives them in different places.
Legend:
[1] = system: ATCC strain 43300 Staphylococcus aureus; experiment: MRSA survival in MSM, DMSO and oxacillin, 48 hours (Example 2)
Procedure: All concentrations were plated out to the 10^−7 dilutions to ascertain cfu/ml.
Material was calculated on a 10 ml volume. […] Sterile DMSO was added to appropriate tubes. Sterile oxacillin was added to appropriate tubes at 300 microliters from a 30 mg/10 ml concentration giving it a final concentration of 6 μg/ml. Control conditions were Lactose Broth inoculated with ATCC strain 43300 Staphylococcus aureus with and without 6 μg/ml oxacillin, as well as uninoculated negative controls to show no signs of contamination.
Appropriate tubes were inoculated at a dilution of ATCC strain 43300 Staphylococcus aureus giving a final concentration of colony forming units of 3.15×10^7/ml (Log=7.49). The tubes were incubated at 25° C. and mixed periodically. Plating was done at 48 hours. […] They were serial diluted down to 10^−7 with 1 ml placed in a sterile petri dish at each dilution point. Then 20 mls of TSA was added to each dilution and swirled and allowed to solidify. All dilutions were placed in a 35° C. incubator for 24 hours. Plates were counted and colony counts changed into log format. A positive and negative control was ascertained.

[2] = system: ATCC strain 43300 Staphylococcus aureus; experiment: MSM alone, MRSA survival (Example 1); details: 5-16% MSM alone, no antibiotic, 24 or 48 hour
Procedure: (§1) USP<51> Antimicrobial Effectiveness protocol was used as the template experimental paradigm. […] All concentrations were plated out to the 10^−7 dilutions to ascertain cfu/ml.
Material was calculated on a 10 ml volume.
All tubes were inoculated with a dilution of MRSA giving a final level of colony forming units of 2.0×10^5/ml (Log=5.23). The tubes were incubated at 25° C. and mixed periodically. Plating was done at 24 and 48 hours. Each condition was plated by diluting 1 ml of growth material into 9 ml of MLB diluent broth. This mixture was serial diluted down to 10^−7, and 1 ml placed in a sterile petri dish at each dilution point. 20 mls of TSA was added to each dilution, swirled and allowed to solidify. All dilutions were placed in a 35° C. incubator for 24 hours. Bacterial colonies on each plate were counted and colony counts changed into log format. A positive and negative control was ascertained.

[3] = system: ATCC strain 43300 Staphylococcus aureus; experiment: MRSA survival in MSM and 6 μg/ml oxacillin or methicillin, 24, 48, 120 hours (Example 4)
Procedure: The growth periods tested were 24 hours, 48 hours and 5 days.
as §1
Material was calculated on a 10 ml volume. Sterile oxacillin or methicillin was added to each experimental condition daily at 300 μl from a 30 mg/10 ml concentration giving it an initial final concentration of 6 μg/ml.
All tubes were inoculated with a dilution of MRSA giving a final level of colony forming units of 2.13×10^6/ml (Log=6.3). The tubes were incubated at 25° C. and mixed periodically. Plating was done at 24 hours, 48 hours and 5 days. Each condition was plated by diluting 1 ml of growth material into 9 ml of MLB diluent broth. This mixture was serial diluted down to 10^−7, and 1 ml placed in a sterile petri dish at each dilution point. 20 mls of TSA was added to each dilution, swirled and allowed to solidify. All dilutions were placed in a 35° C. incubator for 24 hours. Bacterial colonies on each plate were counted and colony counts changed into log format. A positive and negative control was ascertained.

[4] = system: ATCC strain 43300 Staphylococcus aureus; details: 12 μg/ml methicillin (re-added every 24 hours) + MSM (% in label), 24 hours, triplicate platings, inoculum 1.49×10^5/ml
Procedure: Additional antibiotic was added every 24 hours. The growth periods tested were 24 (FIG. 5), 48, 72, 96 and 120 hours.
USP<51> Antimicrobial Effectiveness protocol was used as the template experimental paradigm. […] All concentrations were plated out to the 10^−7 dilutions to ascertain cfu/ml. […] Additional antibiotic was added at the initial concentration every 24 hours.
ATCC strain 43300 Staphylococcus aureus was streaked out for isolations. An isolated colony was chosen, streaked again and incubated. Isolate was chosen and then diluted to a McFarland standard of one. The estimated value was then taken to inoculate tubes containing growth media and 12, 30 or 60 μg/ml methicillin with approximately 10^5 cfu/ml. These tubes were incubated and plated for counting cfu.
Material was calculated on a 10 ml volume. Sterile methicillin was added to each experimental condition to a final concentration of 12, 30 or 60 μg/ml antibiotic. Lactose Broth positive controls both with and without the 12 μg/ml, 30 μg/ml, 60 μg/ml antibiotic were inoculated with MRSA. […] Tubes were set up in singlet, but plated in triplicate, as described below.
All tubes were then inoculated with a dilution of the selected ATCC strain 43300 Staphylococcus aureus clone giving a final level of colony forming units of 1.49×10^5/ml (log=5.17). The tubes were incubated at 25° C. and mixed periodically. Antibiotic was re-inoculated every 24 hours at the initial concentration to maintain pressure on the organism. Plating was done at 24, 48, 72, and 120 hours. Each condition was plated by diluting 1 ml of growth material into 9 ml of MLB diluent broth. […] This mixture was serial diluted down to 10^−7 with 1 ml placed in triplicate in a sterile petri dish at each dilution point. 20 mls of TSA was added to each dilution, swirled and allowed to solidify. All dilutions were placed in a 35° C. incubator for 24 to 72 hours. Bacterial colonies on each plate were counted and the average taken then changed into log format. […] Graphs were recorded as log of 5.2 for TNTC to show comparison among the other data points.
The tubes were spun down at 5000 rpm for 10 minutes. The supernatant was then decanted into 90 mls of Mueller-Hinton broth with 6 μg/ml methicillin. This is for enrichment and the recovery of any MRSA cells that may be present wether healthy or stressed. The pellet had 10 mls Mueller-Hinton broth with 6 μg/ml methicillin added to it to recover any cells that may be present. Both vessels were incubated at 35° C. for 48 hours and plated each 24 hours. Each vessel was plated at 10 dilutions to obtain a 1 cfu detection limit. Since all vessels were at a 1/10 dilution in the enrichment solution plating each vessel in this manner gave us a detection limit of 1 cfu/ml. […] This time point for graphing purposes will be reported as 0 logs.

[5] = 6 μg/ml methicillin + MSM (initial % in label), 48 hours, listed as 5% MSM
[6] = 6 μg/ml methicillin + MSM (initial % in label), 48 hours, listed as 16% MSM
[7] = 6 μg/ml oxacillin + MSM (initial % in label), 48 hours, listed as 8% MSM
[8] = 6 μg/ml oxacillin + MSM (initial % in label), 48 hours, listed as 16% MSM

SMILES: CS(C)(=O)=O [MSM, Methylsulfonylmethane]
- log reduction in cfu/ml ([1]; MA condition (6 μg/ml oxacillin + MSM)): 2.0 log
- maximum log reduction in cfu/ml ([1]; MA condition, 10-16% MSM): 2.9 log
- log reduction in cfu/ml ([1]; MDA condition (6 μg/ml oxacillin + MSM + 1% DMSO), listed as 9% MSM): 1.6 log
- log reduction in cfu/ml ([1]; MDA condition (6 μg/ml oxacillin + MSM + 1% DMSO), listed as 10-16% MSM): 2.0 log
- effect on survival [2]: none of the concentrations of MSM tested had any effect on the survival
- survival (Log cfu/ml) ([3]; 6 μg/ml methicillin + MSM (initial % in label), 48 Hours, listed as 8% MSM): 3.60 Log cfu/ml
- survival (Log cfu/ml) ([3]; 6 μg/ml methicillin + MSM (initial % in label), 48 Hours, listed as 10% MSM): 3.70 Log cfu/ml
- survival (Log cfu/ml) ([3]; 6 μg/ml methicillin + MSM (initial % in label), 48 Hours, listed as 12% MSM): 3.70 Log cfu/ml
- survival (Log cfu/ml) ([3]; 6 μg/ml methicillin + MSM (initial % in label), 48 Hours, listed as 13% MSM): 3.90 Log cfu/ml
- survival (Log cfu/ml) ([3]; 6 μg/ml methicillin + MSM (initial % in label), 48 Hours, listed as 14% MSM): 3.98 Log cfu/ml
- survival (Log cfu/ml) ([3]; 6 μg/ml methicillin + MSM (initial % in label), 48 Hours, listed as 15% MSM): 4.00 Log cfu/ml
- survival (Log cfu/ml) ([3]; 6 μg/ml methicillin + MSM (initial % in label), 24 hours, 3.5% MSM and antibiotic added daily, inoculum Log=6.3): 4.30 Log cfu/ml
- survival (Log cfu/ml) ([3]; 6 μg/ml methicillin + MSM (initial % in label), 24 hours, 3.5% MSM and antibiotic added daily, inoculum Log=6.3, listed as 8% MSM): 4.50 Log cfu/ml
- survival (Log cfu/ml) ([3]; 6 μg/ml methicillin + MSM (initial % in label), 24 hours, 3.5% MSM and antibiotic added daily, inoculum Log=6.3, listed as 10% MSM): 4.40 Log cfu/ml
- survival (Log cfu/ml) ([3]; 6 μg/ml methicillin + MSM (initial % in label), 24 hours, 3.5% MSM and antibiotic added daily, inoculum Log=6.3, listed as 12% MSM): 4.60 Log cfu/ml
- survival (Log cfu/ml) ([3]; 6 μg/ml methicillin + MSM (initial % in label), 24 hours, 3.5% MSM and antibiotic added daily, inoculum Log=6.3, listed as 13% MSM): 4.90 Log cfu/ml
- survival (Log cfu/ml) ([3]; 6 μg/ml methicillin + MSM (initial % in label), 24 hours, 3.5% MSM and antibiotic added daily, inoculum Log=6.3, listed as 14% MSM): 4.90 Log cfu/ml
- survival (Log cfu/ml) ([3]; 6 μg/ml methicillin + MSM (initial % in label), 24 hours, 3.5% MSM and antibiotic added daily, inoculum Log=6.3, listed as 15% MSM): 5.00 Log cfu/ml
- survival (Log cfu/ml) ([3]; 6 μg/ml methicillin + MSM (initial % in label), 24 hours, 3.5% MSM and antibiotic added daily, inoculum Log=6.3, listed as 16% MSM): 5.00 Log cfu/ml
- average log reduction in cfu/ml [3, 5]: 2.7 log
- survival (Log cfu/ml) [3, 5]: 3.60 Log cfu/ml
- average log reduction in cfu/ml [3, 6]: 2.1 log
- survival (Log cfu/ml) [3, 6]: 4.17 Log cfu/ml
- survival (Log cfu/ml) ([3]; 6 μg/ml methicillin + MSM (initial % in label), 120 hours, listed as 5% MSM): TNTC
- survival (Log cfu/ml) ([3]; 6 μg/ml methicillin + MSM (initial % in label), 120 hours, listed as 8% MSM): TNTC
- survival (Log cfu/ml) ([3]; 6 μg/ml methicillin + MSM (initial % in label), 120 hours, listed as 10% MSM): TNTC
- survival (Log cfu/ml) ([3]; 6 μg/ml methicillin + MSM (initial % in label), 120 hours, listed as 12% MSM): 4.20 Log cfu/ml
- survival (Log cfu/ml) ([3]; 6 μg/ml methicillin + MSM (initial % in label), 120 hours, listed as 13% MSM): 2.80 Log cfu/ml
- survival (Log cfu/ml) ([3]; 6 μg/ml methicillin + MSM (initial % in label), 120 hours, listed as 14% MSM): 2.90 Log cfu/ml
- survival (Log cfu/ml) ([3]; 6 μg/ml methicillin + MSM (initial % in label), 120 hours, listed as 15% MSM): 2.80 Log cfu/ml
- survival (Log cfu/ml) ([3]; 6 μg/ml methicillin + MSM (initial % in label), 120 hours, listed as 16% MSM): 2.80 Log cfu/ml
- Log reduction in cfu/ml ([3]; 6 μg/ml methicillin + initial 13-16% MSM, 120 hours): ~3.5 log
- survival (Log cfu/ml) ([3]; 6 μg/ml oxacillin + MSM (initial % in label), 48 Hours, listed as 5% MSM): 5.20 Log cfu/ml
- survival (Log cfu/ml) ([3]; 6 μg/ml oxacillin + MSM (initial % in label), 48 Hours, listed as 10% MSM): 4.20 Log cfu/ml
- survival (Log cfu/ml) ([3]; 6 μg/ml oxacillin + MSM (initial % in label), 48 Hours, listed as 12% MSM): 4.30 Log cfu/ml
- survival (Log cfu/ml) ([3]; 6 μg/ml oxacillin + MSM (initial % in label), 48 Hours, listed as 13% MSM): 4.20 Log cfu/ml
- survival (Log cfu/ml) ([3]; 6 μg/ml oxacillin + MSM (initial % in label), 48 Hours, listed as 14% MSM): 4.40 Log cfu/ml
- survival (Log cfu/ml) ([3]; 6 μg/ml oxacillin + MSM (initial % in label), 48 Hours, listed as 15% MSM): 4.40 Log cfu/ml
- survival (Log cfu/ml) ([3]; 6 μg/ml oxacillin + MSM (initial % in label), 24 hours, listed as 5% MSM): 4.90 Log cfu/ml
- survival (Log cfu/ml) ([3]; 6 μg/ml oxacillin + MSM (initial % in label), 24 hours, listed as 8% MSM): 5.00 Log cfu/ml
- survival (Log cfu/ml) ([3]; 6 μg/ml oxacillin + MSM (initial % in label), 24 hours, listed as 10% MSM): 5.00 Log cfu/ml
- survival (Log cfu/ml) ([3]; 6 μg/ml oxacillin + MSM (initial % in label), 24 hours, listed as 12% MSM): 5.20 Log cfu/ml
- survival (Log cfu/ml) ([3]; 6 μg/ml oxacillin + MSM (initial % in label), 24 hours, listed as 13% MSM): 5.00 Log cfu/ml
- survival (Log cfu/ml) ([3]; 6 μg/ml oxacillin + MSM (initial % in label), 24 hours, listed as 14% MSM): 5.20 Log cfu/ml
- survival (Log cfu/ml) ([3]; 6 μg/ml oxacillin + MSM (initial % in label), 24 hours, listed as 15% MSM): 5.23 Log cfu/ml
- survival (Log cfu/ml) ([3]; 6 μg/ml oxacillin + MSM (initial % in label), 24 hours, listed as 16% MSM): 5.25 Log cfu/ml
- average log reduction in cfu/ml [3, 7]: 2.7 log
- survival (Log cfu/ml) [3, 7]: 3.60 Log cfu/ml
- average log reduction in cfu/ml [3, 8]: 2.1 log
- survival (Log cfu/ml) [3, 8]: 4.17 Log cfu/ml
- survival (Log cfu/ml) ([3]; 6 μg/ml oxacillin + MSM (initial % in label), 120 hours, listed as 5% MSM): TNTC
- survival (Log cfu/ml) ([3]; 6 μg/ml oxacillin + MSM (initial % in label), 120 hours, listed as 8% MSM): TNTC
- survival (Log cfu/ml) ([3]; 6 μg/ml oxacillin + MSM (initial % in label), 120 hours, listed as 10% MSM): TNTC
- survival (Log cfu/ml) ([3]; 6 μg/ml oxacillin + MSM (initial % in label), 120 hours, listed as 12% MSM): TNTC
- survival (Log cfu/ml) ([3]; 6 μg/ml oxacillin + MSM (initial % in label), 120 hours, listed as 13% MSM): TNTC
- survival (Log cfu/ml) ([3]; 6 μg/ml oxacillin + MSM (initial % in label), 120 hours, listed as 14% MSM): 3.00 Log cfu/ml
- survival (Log cfu/ml) ([3]; 6 μg/ml oxacillin + MSM (initial % in label), 120 hours, listed as 15% MSM): 3.00 Log cfu/ml
- survival (Log cfu/ml) ([3]; 6 μg/ml oxacillin + MSM (initial % in label), 120 hours, listed as 16% MSM): 3.00 Log cfu/ml
- Log reduction in cfu/ml ([3]; 6 μg/ml oxacillin + initial 14-16% MSM, 120 hours): ~3.3 log
- survival (cfu/ml) ([4]; listed as 5% MSM): 7.8 × 10^2 cfu/ml and 8.0 × 10^2 cfu/ml and 8.2 × 10^2 cfu/ml
- survival (cfu/ml) ([4]; listed as 6% MSM): 4.0 × 10^2 cfu/ml and 4.4 × 10^2 cfu/ml and 4.5 × 10^2 cfu/ml
- survival (cfu/ml) ([4]; listed as 7% MSM): 4.4 × 10^2 cfu/ml and 5.0 × 10^2 cfu/ml
- survival (cfu/ml) ([4]; listed as 8% MSM): 9.6 × 10^2 cfu/ml and 9.5 × 10^2 cfu/ml and 9.3 × 10^2 cfu/ml

Source: US20130338130A1 (priority 2009, published 2013)
